PubChem BioAssay (NCI)
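Each compound was tested at five concentrations against cells in 96-well plates for 48 hours. TGI denotes the concentration required for complete inhibition of growth.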

Columns and labels:
Experiment in all cases: NCI anticancer screen, dose series, 48 h
HCT-116 colon = system: HCT-116 colon
786-0 renal = system: 786-0 renal
U251 CNS = system: U251 CNS
LOX IMVI melanoma = system: LOX IMVI melanoma
UO-31 renal = system: UO-31 renal
OVCAR-4 ovarian = system: OVCAR-4 ovarian
SF-539 CNS = system: SF-539 CNS
HT29 colon = system: HT29 colon
TK-10 renal = system: TK-10 renal
NCI-H460 lung = system: NCI-H460 lung
SF-295 CNS = system: SF-295 CNS
SF-268 CNS = system: SF-268 CNS
HOP-92 NSCLC = system: HOP-92 NSCLC
COLO 205 colon = system: COLO 205 colon
A498 renal = system: A498 renal
ACHN renal = system: ACHN renal
PC-3 prostate = system: PC-3 prostate
MDA-MB-435 = system: MDA-MB-435
EKVX NSCLC = system: EKVX NSCLC
MDA-MB-231 breast = system: MDA-MB-231 breast

Compound | TGI (HCT-116 colon) [µM] | TGI (786-0 renal) [µM] | TGI (U251 CNS) [µM] | TGI (LOX IMVI melanoma) [µM] | TGI (UO-31 renal) [µM] | TGI (OVCAR-4 ovarian) [µM] | TGI (SF-539 CNS) [µM] | TGI (HT29 colon) [µM] | TGI (TK-10 renal) [µM] | TGI (NCI-H460 lung) [µM] | TGI (SF-295 CNS) [µM] | TGI (SF-268 CNS) [µM] | TGI (HOP-92 NSCLC) [µM] | TGI (COLO 205 colon) [µM] | TGI (A498 renal) [µM] | TGI (ACHN renal) [µM] | TGI (PC-3 prostate) [µM] | TGI (MDA-MB-435) [µM] | TGI (EKVX NSCLC) [µM] | TGI (MDA-MB-231 breast) [µM]
COc1ccc(C2S/C(=C\c3cccc([N+](=O)[O-])c3)C(=O)N2NC(=O)Cc2ccccc2)cc1 (centres undefined) | > 100 | > 100 | > 100 | > 100 | > 100 | > 100 | > 100 | > 100 | > 100 | > 100 | > 100 | > 100 | > 100 | > 100 | > 100 | > 100 | – | – | – | –
[O-][n+]1onc2c1-c1nonc1CC2 | 46.2 | > 100 | > 100 | 79 | > 100 | 74.1 | 53.4 | > 100 | 56.4 | > 100 | > 100 | > 100 | – | > 100 | 83.6 | 88.2 | 77.8 | > 100 | 81.6 | 69.2
Clc1cccc(Cl)c1C1SCc2nc3ncccc3n21 (centres undefined) | > 100 | > 100 | > 100 | > 100 | > 100 | > 100 | > 100 | > 100 | > 100 | > 100 | > 100 | > 100 | – | > 100 | > 100 | > 100 | > 100 | > 100 | > 100 | > 100
N=c1c2ccccc2nc2oc3ccc(Cl)cc3n12 | 69.3 | 15.9 | 17.8 | 26.8 | 32.9 | 13.1 | 32 | > 100 | 34.9 | > 100 | 35.6 | > 100 | – | > 100 | – | 28.4 | > 100 | > 100 | > 100 | > 100
O=C1C=Cc2c(I)sc(I)c21 | 33.1 | 22.8 | 33.3 | 25.2 | 32.5 | 52.6 | 57.2 | 68.4 | 68.5 | > 100 | > 100 | 32.7 | 33 | 36.8 | > 100 | > 100 | – | 62.1 | 83.9 | 68.8
COc1cc(C2SC(N)=Nc3c2c(C)nn3C(=O)Cc2ccccc2)ccc1O (centres undefined) | > 100 | > 100 | – | > 100 | > 100 | – | > 100 | > 100 | > 100 | > 100 | > 100 | > 100 | – | > 100 | > 100 | > 100 | > 100 | > 100 | > 100 | > 100
COc1ccc(-n2nnnc2C2(Nc3ccccc3)CCN(Cc3ccccc3)CC2)cc1 | 26.2 | 28 | > 100 | 24 | 38.9 | > 100 | 34.6 | 21.3 | 40.9 | 42 | 28.9 | – | – | 20 | 48.7 | > 100 | – | 15.4 | 92 | 32.3
CC(=O)O[C@H]1C(=O)[C@@]2(C)[C@H]([C@H](OC(=O)c3ccncc3)[C@]3(O)C[C@H](OC(=O)[C@H](O)[C@@H](NC(=O)c4ccccc4)c4ccccc4)C(C)=C1C3(C)C)[C@]1(OC(C)=O)CO[C@@H]1C[C@@H]2O | > 11.1 | > 25 | > 23.3 | > 25 | > 25 | > 25 | 4.55 | > 25 | > 25 | > 25 | > 25 | > 25 | – | > 20.1 | > 25 | > 25 | > 21 | 1.96 | > 25 | > 25
Cc1ccc(C(=O)Nc2ccc(CP(=O)(O)O)cc2)cc1NC(=O)Nc1cc(C(=O)Nc2ccc(CP(=O)(O)O)cc2)ccc1C | > 100 | > 100 | > 100 | > 100 | > 100 | > 100 | > 100 | > 100 | > 100 | > 100 | > 100 | > 100 | – | > 100 | > 100 | – | > 100 | > 100 | > 100 | > 100
CC1CC(=O)NC2CC1C2(C)C (centres undefined) | – | > 100 | > 100 | > 100 | > 100 | > 100 | – | > 100 | > 100 | > 100 | > 100 | > 100 | > 100 | > 100 | – | > 100 | – | > 100 | – | > 100
Clc1ccc(N=Cc2cc3cc(Br)ccc3nc2Cl)cc1 | > 50 | > 50 | – | > 50 | > 50 | 24.2 | > 50 | > 50 | – | > 50 | – | > 50 | > 50 | > 50 | – | – | > 50 | > 50 | > 50 | –
CC(C)C(/C=C/c1ccc(Cl)cc1)=N\NC(=S)NN | 11.4 | > 100 | > 100 | 33.7 | > 100 | – | > 100 | > 100 | > 100 | 41.8 | > 100 | > 100 | – | > 100 | > 100 | 65.6 | > 100 | 85.2 | – | > 100
O=C1CCC2(c3ccc(F)cc3)Nc3ncncc3N12 (centres undefined) | – | > 10 | > 10 | > 10 | > 10 | > 10 | > 10 | > 10 | > 10 | > 10 | > 10 | > 10 | > 10 | – | – | > 10 | > 10 | > 10 | > 10 | –
